Reference: patent US8263598B2, “Substituted sulfonamide compounds” (Gruenenthal GmbH, priority 2008, dated 2012)

How the values were obtained:
[1] = biological target: T1, B1R receptor of rats (rB1R) (Rattus norvegicus, UniProt P97583); assay: FLIPR Ca2+ assay on rat bradykinin 1 receptor (CHO K1 rB1R cells); format: cell-based; details: test substance 10 μM; CHO K1 cells with B1R gene of rats; agonist Des-Arg9-bradykinin 100 nM; compared to maximum achievable inhibition
T1 construct: host or cells: CHO K1 cells
T1 sequence (P97583 1-337): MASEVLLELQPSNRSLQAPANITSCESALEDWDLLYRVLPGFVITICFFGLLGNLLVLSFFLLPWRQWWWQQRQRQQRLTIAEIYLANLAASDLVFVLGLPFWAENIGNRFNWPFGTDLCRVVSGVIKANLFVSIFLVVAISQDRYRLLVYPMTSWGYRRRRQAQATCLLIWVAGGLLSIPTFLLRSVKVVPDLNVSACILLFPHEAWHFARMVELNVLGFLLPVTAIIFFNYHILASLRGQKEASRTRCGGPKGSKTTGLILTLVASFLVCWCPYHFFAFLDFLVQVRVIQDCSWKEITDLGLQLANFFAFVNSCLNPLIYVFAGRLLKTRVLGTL
Method in brief: (§1)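 CHO K1 cells stably expressing human or rat B1R were loaded with Fluo-4 and tested at 10 μM compound. Ca²⁺ signal was read in FLIPR as % activation versus agonist. After 10 min, agonist was added (hB1R: Lys-Des-Arg9-bradykinin 0.5 nM; rB1R: Des-Arg9-bradykinin 100 nM), and % inhibition was taken relative to maximum achievable inhibition.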

[2] = biological target: T2, human B1R receptor (hB1R) (Homo sapiens, UniProt P46663); assay: FLIPR Ca2+ assay on human bradykinin 1 receptor (CHO K1 hB1R cells); format: cell-based; details: test substance 10 μM; CHO K1 cells with human B1R gene; agonist Lys-Des-Arg9-bradykinin 0.5 nM; compared to maximum achievable inhibition
T2 construct: host or cells: CHO K1 cells
T2 sequence (P46663 1-353): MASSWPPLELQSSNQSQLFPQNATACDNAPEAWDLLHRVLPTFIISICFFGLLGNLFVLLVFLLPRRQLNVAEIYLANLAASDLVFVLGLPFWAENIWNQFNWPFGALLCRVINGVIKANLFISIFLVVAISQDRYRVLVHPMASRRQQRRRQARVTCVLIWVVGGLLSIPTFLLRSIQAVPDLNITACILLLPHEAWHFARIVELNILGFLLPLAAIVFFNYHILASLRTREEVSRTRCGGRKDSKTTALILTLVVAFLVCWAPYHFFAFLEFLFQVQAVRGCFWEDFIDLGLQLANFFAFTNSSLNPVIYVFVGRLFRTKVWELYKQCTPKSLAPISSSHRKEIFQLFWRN
Method in brief: as §1

SMILES	inhibition at 10 µM [1]	inhibition at 10 µM [2]
Cc1cc(C)c(S(=O)(=O)N(C)CCOCC(=O)N2CCn3c(CN(C)C)ccc3C2c2ccccc2)c(C)c1 (centres unmarked) [Example 139, N-(2-(2-(6-((dimethylamino)methyl)-1-phenyl-3,4-dihydropyrrolo[1,2-a]pyrazin-2(1H)-yl)-2-oxoethoxy)ethyl)-N,2,4,6-tetramethylbenzenesulfonamide]	103%	102%
COc1cc(C)c(S(=O)(=O)N(CCOCC(=O)N2CCn3c(CN4CCOCC4)ccc3C2c2ccccc2)CC(C)C)c(C)c1C (centres unmarked) [Example 94, N-isobutyl-4-methoxy-2,3,6-trimethyl-N-(2-(2-(6-(morpholinomethyl)-1-phenyl-3,4-dihydropyrrolo[1,2-a]pyrazin-2(1H)-yl)-2-oxoethoxy)ethyl)benzene-sulfonamide]	102%	104%
Cc1cc(C)c(S(=O)(=O)N(C)CCOCC(=O)N2CCn3cccc3C2c2cccc(C(F)(F)F)c2)c(C)c1 (centres unmarked) [Example 75, N,2,4,6-tetramethyl-N-(2-(2-oxo-2-(1-(3-(trifluoromethyl)phenyl)-3,4-dihydropyrrolo[1,2-a]pyrazin-2(1H)-yl)ethoxy)ethyl)benzenesulfonamide]	48%	63%
COc1cc(C)c(S(=O)(=O)N(CCOCC(=O)N2CCn3cccc3C2C(C)(C)C)CC(C)C)c(C)c1C (centres unmarked) [Example 18, N-(2-(2-(1-tert-butyl-3,4-dihydropyrrolo[1,2-a]pyrazin-2(1H)-yl)-2-oxoethoxy)ethyl)-N-isobutyl-4-methoxy-2,3,6-trimethylbenzenesulfonamide]	98%	82%
COc1cc(C)c(S(=O)(=O)N(C)CCOCC(=O)N2CCn3c(CN4CCCC4)ccc3C2)c(C)c1 [Example 11, 4-methoxy-N,2,6-trimethyl-N-(2-(2-oxo-2-(6-(pyrrolidin-1-ylmethyl)-3,4-dihydropyrrolo[1,2-a]pyrazin-2(1H)-yl)ethoxy)ethyl)benzenesulfonamide]	102%	103%
O=C(CC(NS(=O)(=O)c1ccc2ccccc2c1)c1ccccc1)N1CCn2c(CN3CCCC3)ccc2C1 (centres unmarked) [Example 8, N-(3-oxo-1-phenyl-3-(6-(pyrrolidin-1-ylmethyl)-3,4-dihydropyrrolo[1,2-a]pyrazin-2(1H)-yl)propyl)naphthalene-2-sulfonamide]	42%	95%

Results, then the compound that gave them:

inhibition at 10 µM [1]	inhibition at 10 µM [2]	SMILES
102%	104%	CCC1c2ccc(C)n2CCN1C(=O)COCCN(C)S(=O)(=O)c1c(C)cc(OC)cc1C (centres unmarked) [Example 138, N-(2-(2-(1-ethyl-6-methyl-3,4-dihydropyrrolo[1,2-a]pyrazin-2(1H)-yl)-2-oxoethoxy)ethyl)-4-methoxy-N,2,6-trimethylbenzenesulfonamide]
100%	101%	COc1ccc(C2c3cccn3CCN2C(=O)COCCN(C)S(=O)(=O)c2c(C)cc(C)cc2C)cc1 (centres unmarked) [Example 69, N-(2-(2-(1-(4-methoxyphenyl)-3,4-dihydropyrrolo[1,2-a]pyrazin-2(1H)-yl)-2-oxoethoxy)ethyl)-N,2,4,6-tetramethylbenzenesulfonamide]
102%	105%	COc1cc(C)c(S(=O)(=O)N(C)CCOCC(=O)N2CCn3cccc3C2CCc2ccccc2)c(C)c1 (centres unmarked) [Example 133, 4-methoxy-N,2,6-trimethyl-N-(2-(2-oxo-2-(1-phenethyl-3,4-dihydropyrrolo[1,2-a]pyrazin-2(1H)-yl)ethoxy)ethyl)benzenesulfonamide]
103%	104%	CCCC1c2cccn2CCN1C(=O)COCCN(C)S(=O)(=O)c1c(C)cc(OC)cc1C (centres unmarked) [Example 136, 4-methoxy-N,2,6-trimethyl-N-(2-(2-oxo-2-(1-propyl-3,4-dihydropyrrolo[1,2-a]-pyrazin-2(1H)-yl)ethoxy)ethyl)benzenesulfonamide]
